Test results from US20160193206A1, “BET-PROTEIN-INHIBITING DIHYDROPYRIDOPYRAZINONES” (BAYER PHARMA AKTIENGESELLSCHAFT, priority 2012, published 2016).
One block for each compound: values may come before it.

Columns and labels:
[1] = biological target: T1, BRD4 bromo domain 2 [BRD4(2)] (Homo sapiens, UniProt O60885); assay: BRD4(2)/acetylated peptide H4 binding assay (TR-FRET); conditions: inhibition of interaction between His6-tagged BRD4(2) (amino acids 357-445) and acetylated histone H4 peptide
T1 construct: N-terminally His6-tagged BRD4(2) (amino acids 357-445); made in house; host or cells: E. coli
Procedure, shortened: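 Compounds (0.1 nM to 20 μM, 11 points, duplicates) preincubated 10 min at 22 °C with 100 nM His6-tagged BRD4(2) residues 357-445, then Ac-H4-biotin peptide added; incubated 1 h at 22 °C and 3 h-overnight at 4 °C. Eu/XL665 emission ratio normalised to DMSO and no-protein controls; 4-parameter IC50.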

[2] = biological target: T2, BRD4 bromo domain 1 [BRD4(1)] (Homo sapiens, UniProt O60885); assay: BRD4(1)/acetylated peptide H4 binding assay (TR-FRET); conditions: inhibition of interaction between His6-tagged BRD4(1) (amino acids 67-152) and acetylated histone H4 peptide
T2 construct: N-terminally His6-tagged BRD4(1) (amino acids 67-152); made in house; host or cells: E. coli
Procedure, shortened: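 IC50 came from a 4-parameter fit of the 665/620 nm emission ratio, normalised to DMSO and no-protein controls. His6-tagged BRD4(1) residues 67-152 (typically 10 nM final) was preincubated 10 min with compound (0.1 nM to 20 μM, duplicates), then exposed to Ac-H4-biotin peptide at 22 °C for 1 h and 4 °C for at least 3 h.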

MOLM-13 cell line = assay: MOLM-13 cell proliferation assay (alamarBlue); assay type: cell-based; conditions: Homo sapiens, inhibition of proliferation of MOLM-13 cells (acute myeloid leukaemia), 96 hours incubation
Method: In accordance with the invention, the substances were tested for their ability to inhibit the proliferation of the MOLM-13 cell linie (Deutsche Sammlung für Mikroorganismen und Zellkulturen [German Collection of Microorganisms and Cell Cultures], ACC 554; acute myeloid leukaemia). Cell viability was determined by means of the alamarBlue® reagent (Invitrogen) in a Victor X3 Multilabel Reader (Perkin Elmer). The excitation wavelength was 530 nm and the emission wavelength […].
The MOLM-13 cells were sown at a density of 4000 cells/well in 100 μl of growth medium on 96-well microtitre plates. After overnight incubation at 37° C., the fluorescence values were determined (CI values). The plates were then treated with various substance dilutions and incubated at 37° C. for 96 hours. Subsequently, the fluorescence values were determined (CO values). For the data analysis, the CI values were subtracted from the CO values and the results were compared between cells which had been treated with various dilutions of the substance or only with buffer solution. The IC50 values (substance concentration needed for 50% inhibition of cell proliferation) were calculated therefrom.

SMILES: COc1cc(C(=O)NCCN2CCN(C(=O)OC(C)(C)C)CC2)ccc1Nc1ccc2c(n1)N(C(C)C)[C@H](C)C(=O)N2C [Example 4, 1-tert-Butyl 4-{2-[(4-{[(3R)-1,3-dimethyl-2-oxo-4-(propan-2-yl)-1,2,3,4-tetrahydropyrido[2,3-b]pyrazin-6-yl]amino}-3-methoxybenzoyl)amino]ethyl}piperazinecarboxylate]
IC50 [1]: 0.234 µM
IC50 [2]: 0.374 µM
IC50 (MOLM-13 cell line): 1.11 µM

SMILES: COc1cc(C(=O)N2CC3(CCS3(=O)=O)C2)ccc1Nc1ccc2c(n1)N(C(C)C)[C@H](C)C(=O)N2C [Example 8, (3R)-6-({4-[(1,1-Dioxido-1-thia-6-azaspiro[3.3]hept-6-yl)carbonyl]-2-methoxyphenyl}amino)-4-isopropyl-1,3-dimethyl-3,4-dihydropyrido[2,3-b]pyrazin-2(1H)-one]
IC50 [1]: 0.083 µM
IC50 [2]: 0.141 µM
IC50 (MOLM-13 cell line): 0.362 µM

SMILES: CC(C)N1c2nc(Nc3ccc(C(=O)N4CC5(CCS5(=O)=O)C4)cc3)ccc2N(C)C(=O)[C@H]1C [Example 9, (3R)-6-({4-[(1,1-Dioxido-1-thia-6-azaspiro[3.3]hept-6-yl)carbonyl]phenyl}amino)-4-isopropyl-1,3-dimethyl-3,4-dihydropyrido[2,3-b]pyrazin-2(1H)-one]
IC50 [1]: 0.13 µM
IC50 [2]: 0.15 µM
IC50 (MOLM-13 cell line): 0.698 µM

SMILES: COc1cc(C(=O)N2CC3(CCS3(=O)=O)C2)ccc1Nc1ccc2c(n1)N(C1CCCC1)[C@H](C)C(=O)N2C [Example 10, (3R)-4-Cyclopentyl-6-({4-[(1,1-dioxido-1-thia-6-azaspiro[3.3]hept-6-yl)carbonyl]-2-methoxyphenyl}amino)-1,3-dimethyl-3,4-dihydropyrido[2,3-b]pyrazin-2(1H)-one]
IC50 [1]: 0.23 µM
IC50 [2]: 0.165 µM
IC50 (MOLM-13 cell line): 0.623 µM

SMILES: COc1cc(C(=O)NC2CCN(C)CC2)ccc1Nc1ccc2c(n1)N(C1CCOCC1)[C@H](C)C(=O)N2C [Example 13, 4-{[(3R)-1,3-Dimethyl-2-oxo-4-(tetrahydro-2H-pyran-4-yl)-1,2,3,4-tetrahydropyrido[2,3-b]pyrazin-6-yl]amino}-3-methoxy-N-(1-methylpiperidin-4-yl)benzamide]
IC50 [1]: 0.113 µM
IC50 [2]: 0.114 µM
IC50 (MOLM-13 cell line): 0.212 µM

SMILES: COc1cc(C(=O)N[C@H]2CC[C@H](N3CCN(CC4CC4)CC3)CC2)ccc1Nc1ccc2c(n1)N(C1CCOCC1)[C@H](C)C(=O)N2C [Example 14, N-{trans-4-[4-(Cyclopropylmethyl)piperazin-1-yl]cyclohexyl}-4-{[(3R)-1,3-dimethyl-2-oxo-4-(tetrahydro-2H-pyran-4-yl)-1,2,3,4-tetrahydropyrido[2,3-b]pyrazin-6-yl]amino}-3-methoxybenzamide]
IC50 [1]: 0.108 µM
IC50 [2]: 0.149 µM
IC50 (MOLM-13 cell line): 0.233 µM

SMILES: C[C@@H]1C(=O)N(C)c2ccc(Nc3ccc(S(=O)(=O)N4CCN(C)CC4)cc3F)nc2N1C1CCOCC1 [Example 21, (3R)-6-({2-fluoro-4-[(4-methylpiperazin-1-yl)sulphonyl]phenyl}amino)-1,3-dimethyl-4-(tetrahydro-2H-pyran-4-yl)-3,4-dihydropyrido[2,3-b]pyrazin-2(1H)-one]
IC50 [1]: 0.087 µM
IC50 [2]: 0.106 µM
IC50 (MOLM-13 cell line): 0.397 µM

SMILES: C[C@@H]1C(=O)N(C)c2ccc(Nc3ccc(S(=O)(=O)NCc4ccccn4)cc3)nc2N1C1CCOCC1 [Example 25, 4-{[(3R)-1,3-dimethyl-2-oxo-4-(tetrahydro-2H-pyran-4-yl)-1,2,3,4-tetrahydropyrido[2,3-b]pyrazin-6-yl]amino}-N-(pyridin-2-ylmethyl)benzene-sulphonamide]
IC50 [1]: 0.094 µM
IC50 [2]: 0.05 µM
IC50 (MOLM-13 cell line): 0.388 µM

SMILES: COc1cc(Nc2ccc3c(n2)N(C2CCOCC2)[C@H](C)C(=O)N3C)ccc1S(=O)(=O)N1CCN(C)CC1 [Example 26, (3R)-6-({3-methoxy-4-[(4-methylpiperazin-1-yl)sulphonyl]phenyl}amino)-1,3-dimethyl-4-(tetrahydro-2H-pyran-4-yl)-3,4-dihydropyrido[2,3-b]pyrazin-2(1H)-one]
IC50 [1]: 0.067 µM
IC50 [2]: 0.07 µM
IC50 (MOLM-13 cell line): 0.296 µM

Further lines, results first:

IC50 [1]: 0.083 µM
IC50 [2]: 0.063 µM
IC50 (MOLM-13 cell line): 0.444 µM
SMILES: C[C@@H]1C(=O)N(C)c2ccc(Nc3ccc(C(=O)NC4CCN(C)CC4)cc3)nc2N1C1CCCC1 [Example 11, 4-{[(3R)-4-Cyclopentyl-1,3-dimethyl-2-oxo-1,2,3,4-tetrahydropyrido[2,3-b]pyrazin-6-yl]amino}-N-(1-methylpiperidin-4-yl)benzamide]

IC50 [1]: 0.051 µM
IC50 [2]: 0.237 µM
IC50 (MOLM-13 cell line): 0.062 µM
SMILES: C[C@@H]1C(=O)N(C)c2ccc(Nc3ccc(S(=O)(=O)N[C@H]4CC[C@H](N5CCN(CC6CC6)CC5)CC4)cc3)nc2N1C1CCOCC1 [Example 15, N-{trans-4-[4-(Cyclopropylmethyl)piperazin-1-yl]cyclohexyl}-4-{[(3R)-1,3-dimethyl-2-oxo-4-(tetrahydro-2H-pyran-4-yl)-1,2,3,4-tetrahydropyrido[2,3-b]pyrazin-6-yl]amino}benzenesulphonamide]

IC50 [1]: 0.04 µM
IC50 [2]: 0.056 µM
IC50 (MOLM-13 cell line): 0.305 µM
SMILES: C[C@@H]1C(=O)N(C)c2ccc(Nc3ccc(S(=O)(=O)N4CCOCC4)cc3)nc2N1C1CCOCC1 [Example 18, (3R)-1,3-dimethyl-6-{[4-(morpholin-4-ylsulphonyl)phenyl]amino}-4-(tetrahydro-2H-pyran-4-yl)-3,4-dihydropyrido[2,3-b]pyrazin-2(1H)-one]

IC50 [1]: 0.096 µM
IC50 [2]: 0.154 µM
IC50 (MOLM-13 cell line): 0.445 µM
SMILES: C[C@@H]1C(=O)N(C)c2ccc(Nc3ccc(S(=O)(=O)N4CCN(C)CC4)cc3)nc2N1C1CCOCC1 [Example 20, (3R)-1,3-dimethyl-6-({4-[(4-methylpiperazin-1-yl)sulphonyl]phenyl}amino)-4-(tetrahydro-2H-pyran-4-yl)-3,4-dihydropyrido[2,3-b]pyrazin-2(1H)-one]

IC50 [1]: 0.053 µM
IC50 [2]: 0.052 µM
IC50 (MOLM-13 cell line): 0.203 µM
SMILES: C[C@@H]1C(=O)N(C)c2ccc(Nc3ccc(S(=O)(=O)NC4CCN(C)CC4)cc3)nc2N1C1CCOCC1 [Example 22, 4-{[(3R)-1,3-dimethyl-2-oxo-4-(tetrahydro-2H-pyran-4-yl)-1,2,3,4-tetrahydropyrido[2,3-b]pyrazin-6-yl]amino}-N-(1-methylpiperidin-4-yl)benzenesulphonamide]

IC50 [1]: 0.065 µM
IC50 [2]: 0.046 µM
IC50 (MOLM-13 cell line): 0.358 µM
SMILES: C[C@@H]1C(=O)N(C)c2ccc(Nc3ccc(S(=O)(=O)NCCN4CCN(C)CC4)cc3)nc2N1C1CCOCC1 [Example 23, 4-{[(3R)-1,3-dimethyl-2-oxo-4-(tetrahydro-2H-pyran-4-yl)-1,2,3,4-tetrahydropyrido[2,3-b]pyrazin-6-yl]amino}-N-[2-(4-methylpiperazin-1-yl)ethyl]benzene-sulponamide]

IC50 [1]: 0.076 µM
IC50 [2]: 0.081 µM
IC50 (MOLM-13 cell line): 0.554 µM
SMILES: C[C@@H]1C(=O)N(C)c2ccc(Nc3ccc(S(=O)(=O)NCCN(C)C)cc3)nc2N1C1CCOCC1 [Example 24, N-[2-(dimethylamino)ethyl]-4-{[(3R)-1,3-dimethyl-2-oxo-4-(tetrahydro-2H-pyran-4-yl)-1,2,3,4-tetrahydropyrido[2,3-b]pyrazin-6-yl]amino}benzene-sulphonamide]

IC50 [1]: 0.038 µM
IC50 [2]: 0.032 µM
IC50 (MOLM-13 cell line): 0.202 µM
SMILES: C[C@@H]1C(=O)N(C)c2ccc(Nc3ccc(S(=O)(=O)N(C)C)cc3)nc2N1C1CCOCC1 [Example 27, 4-{[(3R)-1,3-dimethyl-2-oxo-4-(tetrahydro-2H-pyran-4-yl)-1,2,3,4-tetrahydropyrido[2,3-b]pyrazin-6-yl]amino}-N,N-dimethylbenzene-sulphonamide]
